Measurements published in patent US9650339B2, “Inhibitors of histone demethylases” (Gilead Sciences, Inc., priority 2013, dated 2017).

Columns and labels:
[1] = tested on: MCF7 cells; test: Cell proliferation assay MCF7; format: cell-based; conditions: MCF7 human breast cancer cells; 120 hours; ATPlite 1 Step
Method in brief: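 Cells grown 24 h in DMEM GlutaMAX/10% FBS, then exposed to compounds in duplicate (≤0.5% DMSO) for 120 h. Viability read as ATP luminescence (ATPlite 1 Step). Seeding set to reach ~90% confluence at harvest.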

[2] = target: T1, KDM4C (JMJD2C) (Homo sapiens, UniProt Q9H3R0); test: Histone lysine demethylase AlphaLISA assay, KDM4C; format: biochemical; conditions: read-out: KDM4C HDME Inhibition IC50
T1 sequence (Q9H3R0 1-349): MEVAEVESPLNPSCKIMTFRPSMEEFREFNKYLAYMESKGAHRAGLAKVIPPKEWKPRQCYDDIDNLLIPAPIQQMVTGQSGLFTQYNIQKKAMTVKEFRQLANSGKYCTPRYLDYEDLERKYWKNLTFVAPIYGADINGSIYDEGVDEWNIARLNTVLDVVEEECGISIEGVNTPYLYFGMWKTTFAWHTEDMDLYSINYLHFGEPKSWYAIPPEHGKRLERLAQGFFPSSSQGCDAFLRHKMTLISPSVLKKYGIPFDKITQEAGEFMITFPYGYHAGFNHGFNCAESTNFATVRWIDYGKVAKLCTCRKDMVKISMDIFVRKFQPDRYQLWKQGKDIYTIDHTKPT
Method in brief: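 Enzyme 10 min pre-incubation; + compound (3% DMSO soln) 10 min; + biotin-H3 methyl-Lys peptide, 25 μM L-Asc, 10 μM α-KG, RT. Read: AlphaLISA acceptor beads, then streptavidin donor beads, RT, dark.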

[3] = target: T2, KDM3A (JMJD1A) (Homo sapiens, UniProt Q9Y4C1); test: Histone lysine demethylase AlphaLISA assay, KDM3A; format: biochemical; conditions: read-out: KDM3 A HDME Inhibition IC50
T2 construct: 2-end; purchased BPS Bioscience, US; host or cells: Bac (baculovirus system)
T2 sequence (Q9Y4C1 2-1321 limits assumed): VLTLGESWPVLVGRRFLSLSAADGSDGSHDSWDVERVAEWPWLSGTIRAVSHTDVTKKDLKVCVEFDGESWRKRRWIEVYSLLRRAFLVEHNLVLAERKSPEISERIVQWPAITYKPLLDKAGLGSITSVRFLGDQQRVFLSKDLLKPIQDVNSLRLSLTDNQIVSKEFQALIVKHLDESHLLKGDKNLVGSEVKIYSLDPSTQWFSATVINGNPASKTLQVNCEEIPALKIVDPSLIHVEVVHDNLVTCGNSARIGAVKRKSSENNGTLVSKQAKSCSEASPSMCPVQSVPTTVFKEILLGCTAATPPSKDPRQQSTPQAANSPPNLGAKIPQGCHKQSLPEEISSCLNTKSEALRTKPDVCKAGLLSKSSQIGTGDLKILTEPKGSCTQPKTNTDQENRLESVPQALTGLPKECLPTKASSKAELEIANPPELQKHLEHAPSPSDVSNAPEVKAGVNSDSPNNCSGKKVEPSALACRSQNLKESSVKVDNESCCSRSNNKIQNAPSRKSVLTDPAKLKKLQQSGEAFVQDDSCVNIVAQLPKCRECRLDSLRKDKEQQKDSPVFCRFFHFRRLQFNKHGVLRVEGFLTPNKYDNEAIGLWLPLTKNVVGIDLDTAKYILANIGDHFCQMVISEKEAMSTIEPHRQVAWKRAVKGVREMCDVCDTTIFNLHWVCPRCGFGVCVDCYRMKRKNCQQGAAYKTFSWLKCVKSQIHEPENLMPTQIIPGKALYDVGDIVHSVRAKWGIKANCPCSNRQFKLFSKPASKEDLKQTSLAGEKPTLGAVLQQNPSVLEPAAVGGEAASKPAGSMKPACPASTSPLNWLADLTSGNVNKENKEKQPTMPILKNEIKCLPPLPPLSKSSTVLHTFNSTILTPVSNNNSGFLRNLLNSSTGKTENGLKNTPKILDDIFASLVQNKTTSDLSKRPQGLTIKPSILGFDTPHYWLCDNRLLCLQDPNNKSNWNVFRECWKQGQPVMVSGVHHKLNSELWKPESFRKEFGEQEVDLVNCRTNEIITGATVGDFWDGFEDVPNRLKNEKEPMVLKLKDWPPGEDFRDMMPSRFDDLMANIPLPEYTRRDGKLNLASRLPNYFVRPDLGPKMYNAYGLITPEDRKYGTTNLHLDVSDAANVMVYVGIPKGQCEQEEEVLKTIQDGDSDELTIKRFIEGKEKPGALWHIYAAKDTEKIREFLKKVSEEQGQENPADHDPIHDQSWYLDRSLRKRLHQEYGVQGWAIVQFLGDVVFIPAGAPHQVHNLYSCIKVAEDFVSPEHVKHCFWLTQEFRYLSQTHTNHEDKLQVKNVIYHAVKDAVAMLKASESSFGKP
Experimental: Assays are performed analogously to the protocol described by PerkinElmer (Roy et al. PerkinElmer Technical Note: AlphaLISA #12, April 2011)
Enzymes are dissolved in enzyme buffer and incubated for 10 min before being added to 3% DMSO solutions of compounds in enzyme buffer. Incubated for another 10 minutes, before substrate solution is added and the reaction mixture is incubated at room temperature. 10 μL acceptor beads, suspended in Epigenetic Buffer (Perkin Elmer AL008) from stock, are added and the suspension is incubated in the dark at room temperature, before a suspension of streptavidin donor beads (Perkin Elmer 6760002) in Epigenetic Buffer is added. After incubation at room temperature in the dark the plates are read. […]
BK9M2: Biotin-ARTKQTAR(KMe2)STGGKAPRKQ-NH2 (AnaSpec 64359) […]
Substrate Solution: Substrate, 25 μM L-Asc, and 10 μM α-KG in Buffer A.

EC50 [1] [nM]	IC50 [2] [nM]	IC50 [3] [nM]	Compound
< 250	> 2500		CN(C)CCCNCc1cc(CN)ccn1 [Compound 3, [2-({[3-(dimethylamino)propyl]-amino}methyl)pyridin-4-yl]methanamine]
	> 2500		CN(C)C(=O)CNCc1cc(CNCC#N)ccn1 [Compound 13, 2-{[(4-{[(cyanomethyl)amino]-methyl}pyridin-2-yl)methyl]amino}-N,N-dimethylacetamide]
	250 to 2500	> 2500	CN(C)C(=O)CNCc1cc(CNCCF)ccn1 [Compound 14, 2-{[(4-{[(2-fluoroethyl)amino]-methyl}pyridin-2-yl)methyl]amino}-N,N-dimethylacetamide]
	> 2500	> 2500	N#CCNCc1ccnc(CNCCCCN(Cc2ccccc2)C2CC2)c1 [Compound 23, 2-[({2-[({4-[benzyl(cyclopropyl)-amino]butyl}amino)-methyl]pyridin-4-yl}methyl)amino]-acetonitrile]
	< 250		CN(C)C(=O)CNCc1cc(/C=N\C2CC2)ccn1 [Compound 33]
< 250	< 250		CCN(CCN(C)C)C(=O)CNCc1cc(/C=N/CCC2CCCCC2)ccn1 [Compound 63, 2-[({4-[[(2-cydohexylethyl)-imino]methyl]pyridin-2-yl}methyl)amino]-N-[2-(dimethylamino)-ethyl]-N-ethylacetamide]
> 2500	250 to 2500		CCN(CCC#N)C(=O)CNCc1cc(/C=N/CCO)ccn1 [Compound 94, N-(2-cyanoethyl)-N-ethyl-2-[({4-[[(2-hydroxyethyl)imino]-methyl]pyridin-2-yl}methyl)amino]-acetamide]
> 2500	> 2500		CC(C)C[C@H](NCc1cc(/C=N/CCO)ccn1)C(=O)N1CCCCC1 [Compound 95, (2S)-2-[({4-[[(2-hydroxyethyl)imino]-methyl]pyridin-2-yl}methyl)amino]-4-methyl-1-(piperidin-1-yl)pentan-1-one]

Further lines, the compound ahead of its results:

Compound	EC50 [1] [nM]	IC50 [2] [nM]	IC50 [3] [nM]
CN(C)CCCCNCc1cc(CNC2CC2)ccn1 [Compound 10, N-{[2-({[4-(dimethylamino)butyl]-amino}methyl)pyridin-4-yl]methyl}-cyclopropanamine]		> 2500	> 2500
CC1CCCCN1CCCNCc1cc(CNC2CC2)ccn1 (stereo not shown) [Compound 11, N-{[2-({[3-(2-methylpiperidin-1-yl)propyl]amino}methyl)-pyridin-4-yl]methyl}-cyclopropanamine]		> 2500	> 2500
CCCNCc1cc(CNC2CC2)ccn1 [Compound 12, N-({2-[(propylamino)methyl]-pyridin-4-yl}methyl)-cyclopropanamine]		> 2500	> 2500
CN(C)CCNCc1ccnc(CNCC(=O)N(C)C)c1 [Compound 15, 2-({[4-({[2-(dimethylamino)ethyl]-amino}methyl)pyridin-2-yl]methyl}amino)-N,N-dimethylacetamide]		250 to 2500	> 2500
c1ccc(CN2CCC[C@H]2CNCc2cc(CNCC3CC3)ccn2)cc1 [Compound 16, {[(2S)-1-benzylpyrrolidin-2-yl]methyl}[(4-{[(cyclopropylmethyl)-amino]methyl}pyridin-2-yl)methyl]amine]		> 2500	> 2500
CNCc1ccnc(CNCCCN(C)Cc2ccccc2)c1 [Compound 17, benzyl(methyl){3-[({4-[(methylamino)methyl]-pyridin-2-yl)methyl)-amino]propyl}-amine]		250 to 2500	> 2500
CN(C)CCNCc1cc(CNC(C#N)C2CC2)ccn1 (stereo not shown) [Compound 21, 2-cyclopropyl-2-({[2-({[2-(dimethylamino)ethyl]-amino}methyl)pyridin-4-yl]methyl}amino)-acetonitrile]		> 2500	> 2500
CNC(C#N)c1ccnc(CNCCCN(C)C)c1 (stereo not shown) [Compound 24, 2-[2-({[3-(dimethylamino)propyl]-amino}methyl)pyridin-4-yl]-2-(methylamino)-acetonitrile]		250 to 2500	> 2500
CC1CC1/N=C/c1ccnc(CNCC(=O)N(C)C)c1 (stereo not shown) [Compound 35, N,N-dimethyl-2-[({4-[N-(2-methylcyclopropyl)-carboximidoyl]pyridin-2-yl}methyl)amino]-acetamide]		250 to 2500	> 2500
CCSCCNCc1cc(/C=N/C2CC2)ccn1 [Compound 39, N-{[2-({[2-(ethylsulfanyl)-ethyl]amino}methyl)pyridin-4-yl]methylidene}-cyclopropanamine]		> 2500	> 2500
CN(CCCNCc1cc(/C=N/C2CC2)ccn1)Cc1ccccc1 [Compound 41, N-({2-[({3-[benzyl(methyl)amino]-propyl}amino)methyl]-pyridin-4-yl}methylidene)-cyclopropanamine]		250 to 2500	
CCN(CCN(C)C)C(=O)CNCc1cc(C2OCC(Cc3ccccc3)CN2C(=O)C(F)(F)F)ccn1 (stereo not shown) [Compound 90, 2-[({4-[5-benzyl-3-(trifluoroacetyl)-1,3-oxazinan-2-yl]pyridin-2-yl}methyl)amino]-N-[2-(dimethylamino)-ethyl]-N-ethylacetamide]	< 250	250 to 2500	
CCN(CCN(C)C)C(=O)CNCc1cc(C2OCC3(CC3)CN2C(=O)C(F)(F)F)ccn1 (stereo not shown) [Compound 91, N-[2--(dimethylamino)-ethyl]-N-ethyl-2-[({4-[7-(trifluoroacetyl)-5-oxa-7-azaspiro[2.5]-octan-6-yl]pyridin-2-yl}methyl)amino]-acetamide]	< 250	250 to 2500	
CN(Cc1ccccc1F)C(=O)CNCc1cc(/C=N/CCO)ccn1 [Compound 92, N-[(2-fluorophenyl)methyl]-2-[({4-[[(2-hydroxyethyl)imino]-methyl]pyridin-2-yl}methyl)amino]-N-methylacetamide]	> 2500	> 2500	
OCC/N=C/c1ccnc(CNCCc2ccccc2OCc2ccccc2)c1 [Compound 93, 2-[({2-[({2-[2-(benzyloxy)phenyl]-ethyl}amino)methyl]-pyridin-4-yl}methylidene)-amino]ethan-1-ol]	> 2500	> 2500	
CCN(CC(C)(C)N(C)C)C(=O)CNCc1cc(C=O)ccn1 [Compound 118, N-[2-(dimethylamino)-2-methylpropyl]-N-ethyl-2-{[(4-formylpyridin-2-yl)methyl]amino}-acetamide]	< 250	< 250	
CN(CC(=O)N1CCCCC1)Cc1cc(C=O)ccn1 [Compound 120, 2-({methyl[2-oxo-2-(piperidin-1-yl)ethyl]amino}-methyl)pyridine-4-carbaldehyde]		> 2500	
